{
  "source": "patent US20130035232A1",
  "about": "“INDUCTION AND STABILIZATION OF ENZYMATIC ACTIVITY IN MICROORGANISMS” (GEORGIA STATE UNIVERSITY RESEARCH FOUNDATION, INC., priority 2010, published 2013)",
  "key": {"nitrile hydratase": {"tested_on": "nitrile hydratase", "assay": "Nitrile hydratase production on supplemented medium", "type": "cell-based", "conditions": "YEMEA, urea, cobalt, supplement 3.8 mM", "experimental": "The induction of nitrile hydratase production and amidase production in various nitrile hydratase producing microorganisms was evaluated. All strains were grown on YEMEA medium containing 7.5 g/L of urea and 10 ppm cobalt (provided as cobalt chloride) supplemented with asparagine (ASN), glutamine (GLN), or both asparagine and glutamine. The asparagine and glutamine were added at a concentration of 3.8 mM. As a comparative, enzyme production with no supplementation was also tested. Growth temperature was in the range of 26° C. to 30° C."}, "amidase": {"tested_on": "amidase", "assay": "20 liter fermentation with asparagine feed: amidase", "type": "cell-based, Rhodococcus sp. DAP 96253", "conditions": "end of 20 liter fermentation; asparagine 0.15M at 1000 μl/min from t=10 hour", "experimental": "(§1) Rhodococcus sp. DAP 96253 were grown using biphasic medium as the source of inoculum for a 20 liter fermentation. The supplemental addition of medium/carbohydrate (either YEMEA, dextrose or maltose) was made to the modified R2A medium, containing cottonseed hydrolysate substituted for the Proteos Peptone 3 (PP3). Asparagine (0.15M solution) was added at a continuous rate of 1000 μl/min beginning at t=10 hour. At the end of the fermentation run, 159 units per milligram cell dry weight of acrylonitrile specific nitrile hydratase, 22 units of amidase per milligram cell dry weight, and 16 g/l cell packed wet weight were produced."}, "asparaginase I": {"tested_on": "asparaginase I", "assay": "20 liter fermentation with asparagine feed: asparaginase I", "type": "cell-based, Rhodococcus sp. DAP 96253", "conditions": "end of 20 liter fermentation; asparagine 0.15M at 1000 μl/min from t=10 hour; FIG. 5", "experimental": "as §1"}},
  "data": [
    {"smiles": "NC(=O)C[C@H](N)C(=O)O", "note": "[Asparagine, asparagine]", "values": [
      {"measurement": "Nitrile Hydratase Level Based on Growth Medium Supplementation", "setting": "nitrile hydratase; Brevibacterium ketoglutaricum ATCC 21533, 30 °C", "value": 30, "unit": "Units/mg cdw"},
      {"measurement": "Nitrile Hydratase Level Based on Growth Medium Supplementation", "setting": "nitrile hydratase; Pseudomonas chloroaphis ATCC 13985, 26 °C", "value": 14, "unit": "Units/mg cdw"},
      {"measurement": "Nitrile Hydratase Level Based on Growth Medium Supplementation", "setting": "nitrile hydratase; Pseudomonas chloroaphis ATCC 43051, 30 °C", "value": 28, "unit": "Units/mg cdw"},
      {"measurement": "Nitrile Hydratase Level Based on Growth Medium Supplementation", "setting": "nitrile hydratase; Rhodococcus erythropolis ATCC 47072, 26 °C", "value": 48, "unit": "Units/mg cdw"},
      {"measurement": "Nitrile Hydratase Level Based on Growth Medium Supplementation", "setting": "nitrile hydratase; Rhodococcus rhodochrous DAP 96622 ATCC 55898, 26 °C", "value": 158, "unit": "Units/mg cdw"},
      {"measurement": "Nitrile Hydratase Level Based on Growth Medium Supplementation", "setting": "nitrile hydratase; Rhodococcus sp. DAP 96253 ATCC 55899, 30 °C", "value": 155, "unit": "Units/mg cdw"},
      {"measurement": "amidase produced", "setting": "amidase", "value": "22 units per milligram cell dry weight"},
      {"measurement": "asparaginase I produced", "setting": "asparaginase I", "value": "16 units per milligram cell dry weight"}
    ]}
  ]
}
